Columns and labels:
Assay type in all cases: cell-based
S. aureus ATCC 29213 = test: Minimum Inhibitory Concentration (MIC) assay, S. aureus; settings: Staphylococcus aureus, ATCC29213; broth microdilution; read-out: MIC against S. Aureus
Procedure: (§1) The antimicrobial activity of the compounds of the invention may be evaluated by a number of methods, including the following visual minimum inhibitory concentration (MIC) assay. This assay determines the minimum concentration of compound required to inhibit growth of a bacterial strain.
(§2) Minimum Inhibitory Concentration (MIC) Assay
(§3) Whole-cell antibacterial activity is determined by broth microdilution using conditions recommended by the NCCLS (see National Committee for Clinical Laboratory Standards. 2001. Performance standards for antimicrobial susceptibility testing: 11th informational supplement. Vol. 21, no. 1, M100-S11. National Committee for Clinical Laboratory Standards, Wayne, Pa.). Test compounds are dissolved in DMSO and diluted 1:50 in Mueller-Hinton II broth (Becton-Dickinson) to produce a 256 μg/ml stock solution. In a 96-well microtiter plate, the compound solution is serially two-fold diluted in Mueller-Hinton II broth. After the compounds are diluted, a 50 μl aliquot of the test organism (˜1×10^6 cfu/mL) is added to each well of the microtiter plate. The final test concentrations ranges from 0.125-128 μg/mL. Inoculated plates are incubated in ambient air at 37° C. for 18 to 24 hours. The organisms selected for testing included laboratory strains S. aureus ATCC 29213 and E. coli ATCC 25922 (strains purchased from American Type Culture Collection, Manassas, Va.), S. aureus FQR700699, and Paeruginosa 27853. The minimum inhibitory concentration (MIC) is determined as the lowest concentration of compound that inhibited visible growth of the test organism.

E. coli ATCC 25922 = test: Minimum Inhibitory Concentration (MIC) assay, E. coli; settings: Escherichia coli, ATCC25922; broth microdilution; read-out: MIC against E. coli
Procedure: as §1, §2, §3

MRSA strain ATCC 700699 = test: Minimum Inhibitory Concentration (MIC) assay, Methicillin Resistant S. Aureus; settings: Staphylococcus aureus; broth microdilution; read-out: MIC against Methicillin Resistant S. Aureus
Source text: It has been unexpectedly discovered that substitution of compounds of Formula I and Formula II with a methoxy substituent at the R8 position increases the anti-microbial activity of the compound against Methicillin resistant Staphylococcus Aureus bacteria while at the same time decreasing the cellular toxicity of the compound. The simultaneous increase in compound activity and decrease in compound toxicity provides a greater therapeutic range for compounds of Formula I and Formula II in which R8 is methoxy; i.e. the range of doses of such compounds that will produce beneficial effects without harmful side effects is increased. […] Therapeutic range is determined using a standard assay of cytotoxicity such as the Alamar blue assay provided in Example 10.
as §1, §2, §3

SMILES	MIC (S. aureus ATCC 29213) [µg/mL]	MIC (E. coli ATCC 25922) [µg/mL]	MIC (MRSA strain ATCC 700699) [µg/mL]
CCn1c2cc(N3CCC(N(C)C)C3)c(F)cc2c(=O)c2c(=O)[nH]sc21 (stereo not shown) [Compound 34, 7-(3-(dimethyl-amino)pyrrolidin-1-yl)-9-ethyl-6-fluoroisothia-zolo[5,4-b]quinoline-3,4(2H,9H)-dione]	≤ 1	≤ 1	–
CCn1c2cc(NCc3ccncc3)c(F)cc2c(=O)c2c(=O)[nH]sc21 [Compound 35, 9-ethyl-6-fluoro-7-(pyridin-4-ylmethylamino) isothiazolo[5,4-b]quinoline-3,4(2H,9H)-dione]	≤ 1	≤ 1	–
CCn1c2cc(N3CCN(CCN(C)C)CC3)c(F)cc2c(=O)c2c(=O)[nH]sc21 [Compound 36, 7-(4-(2-(dimethyl-amino)ethyl)piperazin-1-yl)-9-ethyl-6-fluoroisothia-zolo[5,4-b]quinoline-3,4(2H,9H)-dione]	≤ 1	≤ 1	–
CCn1c2cc(N3CCSCC3)c(F)cc2c(=O)c2c(=O)[nH]sc21 [Compound 37, 9-ethyl-6-fluoro-7-thiomorpho-linoiso-thiazolo[5,4-b]quinoline-3,4(2H,9H)-dione]	≤ 1	≤ 1	–
O=c1[nH]sc2c1c(=O)c1cc(F)c(N3CCC4(CC3)OCCO4)cc1n2C1CC1 [Compound 39]	≤ 1	≤ 1	–
O=C1CCN(c2cc3c(cc2F)c(=O)c2c(=O)[nH]sc2n3C2CC2)CC1 [Compound 40, 9-cyclopropyl-6-fluoro-7-(4-oxo-piperidin-1-yl)isothia-zolo[5,4-b]quinoline-3,4(2H,9H)-dione]	≤ 1	≤ 1	–
O=c1[nH]sc2c1c(=O)c1cc(F)c(N3CCC(O)CC3)cc1n2C1CC1 [Compound 41, 9-cyclopropyl-6-fluoro-7-(4-hydroxy-piperidin-1-yl)isothia-zolo[5,4-b]quinoline-3,4(2H,9H)-dione]	≤ 1	≤ 1	–
CC(=O)N1CCN(c2cc3c(cc2F)c(=O)c2c(=O)[nH]sc2n3C2CC2)CC1 [Compound 44, 7-(4-acetyl-piperazin-1-yl)-9-cyclo-propyl-6-fluoroiso-thiazolo[5,4-b]quinoline-3,4(2H,9H)-dione]	≤ 1	≤ 1	–
CCn1c2s[nH]c(=O)c2c(=O)c2cc(F)c(N3CC[C@@H](C(C)(C)N)C3)c(OC)c21 [Compound 59, (R)-7-(3-(2-aminopropan-2-yl)pyrrolidin-1-yl)-9-ethyl-6-fluoro-8-methoxyiso-thiazolo[5,4-b]quinoline-3,4(2H,9H)-dione]	≤ 1	–	≤ 1
COc1c(N2CCC(CN)C2)c(F)cc2c(=O)c3c(=O)[nH]sc3n(C3CC3)c12 (stereo not shown) [Compound 66, 7-(3-(aminomethyl)-pyrrolidin-1-yl)-9-cyclopropyl-6-fluoro-8-methoxyiso-thiazolo[5,4-b]quinoline-3,4(2H,9H)-dione]	≤ 1	–	≤ 1
COc1c(N2C[C@H]3CCCN[C@H]3C2)ccc2c(=O)c3c(=O)[nH]sc3n(C3CC3)c12 [Compound 78, 9-cyclopropyl-8-methoxy-7-((4aR,7aR)octahydro-pyrrolo[3,4-b]pyridin-6-yl)isothia-zolo[5,4-b]quinoline-3,4(2H,9H)-dione]	≤ 1	≤ 1	–
CNC(C)(C)[C@@H]1CCN(c2ccc3c(=O)c4c(=O)[nH]sc4n(C4CC4)c3c2OC)C1 [Compound 79, (R)-9-cyclo-propyl-8-methoxy-7-(3-(2-(methyl-amino)propan-2-yl)pyrrolidin-1-yl)isothia-zolo[5,4-b]quinoline-3,4(2H,9H)-dione]	≤ 1	≤ 1	–
COc1c(N2CC[C@@H](C(C)N(C)C)C2)c(F)cc2c(=O)c3c(=O)[nH]sc3n(C3CC3)c12 (stereo partly drawn) [Compound 81, (R)-9-cyclo-propyl-7-(3-(1-(di-methylamino)ethyl)pyrrolidin-1-yl)-6-fluoro-8-methoxyiso-thiazolo[5,4-b]quinoline-3,4(2H,9H)-dione]	≤ 1	≤ 1	–
COc1c(N2CC[C@@H](C(C)(C)N(C)C)C2)c(F)cc2c(=O)c3c(=O)[nH]sc3n(C3CC3)c12 [Compound 82, (R)-9-cyclo-propyl-7-(3-(2-(dimethyl-amino)propan-2-yl)pyrrolidin-1-yl)-6-fluoro-8-methoxyiso-thiazolo[5,4-b]quinoline-3,4(2H,9H)-dione]	≤ 1	≤ 1	–
COc1cc2c(=O)c3c(=O)[nH]sc3n(C3CC3)c2c(F)c1N1CC[C@@H](C(C)(C)N)C1 [Compound 83, (R)-7-(3-(2-aminopropan-2-yl)pyrrolidin-1-yl)-9-cyclopropyl-8-fluoro-6-methoxyiso-thiazolo[5,4-b]quinoline-3,4(2H,9H)-dione]	≤ 1	≤ 1	–
COc1cc2c(=O)c3c(=O)[nH]sc3n(C3CC3)c2c(F)c1N1CC[C@@H](CN)C1 [Compound 85, (S)-7-(3-(aminomethyl)-pyrrolidin-1-yl)-9-cyclo-propyl-8-fluoro-6-methoxyiso-thiazolo[5,4-b]quinoline-3,4(2H,9H)-dione]	≤ 1	≤ 1	–
COc1c(N2CC[C@@H](CN(C)C)C2)c(F)cc2c(=O)c3c(=O)[nH]sc3n(C3CC3)c12 [Compound 86, (S)-9-cyclo-propyl-7-(3-((dimethyl-amino)methyl)pyrrolidin-1-yl)-6-fluoro-8-methoxyiso-thiazolo[5,4-b]quinoline-3,4(2H,9H)-dione]	≤ 1	≤ 1	–
COc1c(N2CC[C@H](CN)C2)ccc2c(=O)c3c(=O)[nH]sc3n(C3CC3)c12 [Compound 90, (R)-7-(3-(aminomethyl)-pyrrolidin-1-yl)-9-cyclopropyl-8-methoxyiso-thiazolo[5,4-b]quinoline-3,4(2H,9H)-dione]	≤ 1	≤ 1	–
CC[C@@H](NC)[C@@H]1CCN(c2c(F)cc3c(=O)c4c(=O)[nH]sc4n(C4CC4)c3c2OC)C1 [Compound 92, 9-cyclopropyl-6-fluoro-8-methoxy-7-((R)-3-((R)-1-(methylamino)-propyl)pyrrolidin-1-yl)isothia-zolo[5,4-b]quinoline-3,4(2H,9H)-dione]	≤ 1	–	≤ 1
COc1c(N2CC[C@@H](CNC3CC3)C2)ccc2c(=O)c3c(=O)[nH]sc3n(C3CC3)c12 [Compound 101, (S)-9-cyclo-propyl-7-(3-((cyclopropyl-amino)methyl)-pyrrolidin-1-yl)-8-methoxyiso-thiazolo[5,4-b]quinoline-3,4(2H,9H)-dione]	≤ 1	≤ 1	–
COc1c(N2CC(N)C2)c(F)cc2c(=O)c3c(=O)[nH]sc3n(C3CC3)c12 [Compound 105, 7-(3-amino-azetidin-1-yl)-9-cyclopropyl-6-fluoro-8-methoxyiso-thiazolo[5,4-b]quinoline-3,4(2H,9H)-dione]	≤ 1	≤ 1	–
CCNC1CN(c2c(F)cc3c(=O)c4c(=O)[nH]sc4n(C4CC4)c3c2OC)C1 [Compound 106, 9-cyclopropyl-7-(3-(ethylamino)-azetidin-1-yl)-6-fluoro-8-methoxyiso-thiazolo[5,4-b]quinoline-3,4(2H,9H)-dione]	≤ 1	≤ 1	–
CN[C@H](C)[C@@H]1CCN(c2c(F)cc3c(=O)c4c(=O)[nH]sc4n(C4CC4)c3c2OC)C1 [Compound 107, 9-cyclopropyl-6-fluoro-8-methoxy-7-((R)-3-((R)-1-(methyl-amino)ethyl)pyrrolidin-1-yl)isothia-zolo[5,4-b]quinoline-3,4(2H,9H)-dione]	≤ 1	–	≤ 1
CN[C@@H](C)[C@@H]1CCN(c2c(F)cc3c(=O)c4c(=O)[nH]sc4n(C4CC4)c3c2OC)C1 [Compound 108, 9-cyclopropyl-6-fluoro-8-methoxy-7-((R)-3-((S)-1-(methylamino)-ethyl)pyrrolidin-1-yl)isothia-zolo[5,4-b]quinoline-3,4(2H,9H)-dione]	≤ 1	–	≤ 1
COc1c(N2CC[C@@H]([C@H](C)N)C2)ccc2c(=O)c3c(=O)[nH]sc3n(C3CC3)c12 [Compound 111, 7-((R)-3-((S)-1-aminoethyl)-pyrrolidin-1-yl)-9-cyclo-propyl-8-methoxyiso-thiazolo[5,4-b]quinoline-3,4(2H,9H)-dione]	≤ 1	–	≤ 1
COc1c(N2CC[C@@H](C(C)NC(C)C)C2)c(F)cc2c(=O)c3c(=O)[nH]sc3n(C3CC3)c12 (stereo partly drawn) [Compound 112, (R)-9-cyclo-propyl-6-fluoro-7-(3-(1-(isopropyl-amino)ethyl)pyrrolidin-1-yl)-8-methoxyiso-thiazolo[5,4-b]quinoline-3,4(2H,9H)-dione]	≤ 1	–	≤ 1

From patent US8044204B2, “8-methoxy-9H-isothiazolo[5,4-b]quinoline-3,4-diones and related compounds as anti-infective agents” (Achillion Pharmaceuticals, Inc., priority 2005, dated 2011)
